Changes are numbered by the printed parent chain. pKi: −log10 of the molar value. Where a SMILES comes first, the peptide text is derived from it. Bridges are numbered along the chain shown (N, C = ends).
Key:
Assay in all cases: Heterologous whole cell competition binding
Conditions in all cases: heterologous competition of 125I-sCT(8-32), whole cells, mean ± S.E.M., SEM
hCTR V293A = target: T1, hCTR V293A (Homo sapiens, UniProt P30988, V293A)
T1 construct: c-Myc (N); expressed in transfected cells
T1 sequence (P30988 25-474 V293A): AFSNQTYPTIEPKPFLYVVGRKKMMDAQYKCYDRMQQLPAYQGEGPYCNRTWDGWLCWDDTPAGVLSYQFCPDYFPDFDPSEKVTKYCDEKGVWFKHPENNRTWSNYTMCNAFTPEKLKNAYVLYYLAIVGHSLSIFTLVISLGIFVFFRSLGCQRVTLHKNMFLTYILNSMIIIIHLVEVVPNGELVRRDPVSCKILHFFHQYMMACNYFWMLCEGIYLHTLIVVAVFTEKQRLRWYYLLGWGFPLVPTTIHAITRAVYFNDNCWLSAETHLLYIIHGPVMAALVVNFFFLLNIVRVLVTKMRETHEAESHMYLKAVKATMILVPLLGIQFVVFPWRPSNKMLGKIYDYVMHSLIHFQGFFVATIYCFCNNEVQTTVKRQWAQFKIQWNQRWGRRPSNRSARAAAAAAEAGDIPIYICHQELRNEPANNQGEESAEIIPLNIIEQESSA
Description: (§1) Following overnight incubation non-bound ligand was removed and radioactivity was determined using a gamma counter.
(§2) Data were corrected for radioligand occupancy using the Cheng-Prusoff equation in Prism; as such data are reported as pKi. Emax and EC50 were estimated from concentration-response curves using with a 3-parameter logistic equation in Prism (v7). These values are a composite of functional affinity, efficacy and stimulus response coupling. […] Significance was accepted at P < 0.05.

hCTR V375A = target: T2, hCTR V375A (Homo sapiens, UniProt P30988, V375A)
T2 construct: c-Myc (N); expressed in transfected cells
T2 sequence (P30988 25-474 V375A): T1 sequence (P30988 25-474 V293A) with A269V, V351A
Description: as §1, §2

hCTR R281A = target: T3, hCTR R281A (Homo sapiens, UniProt P30988, R281A)
T3 construct: expressed in transfected cells
T3 sequence (P30988 25-474 R281A): T1 sequence (P30988 25-474 V293A) with R257A, A269V
Description: as §1, §2

hCTR S364A = target: T4, hCTR S364A (Homo sapiens, UniProt P30988, S364A)
T4 construct: c-Myc (N); expressed in transfected cells
T4 sequence (P30988 25-474 S364A): T1 sequence (P30988 25-474 V293A) with A269V, S340A
Description: as §1, §2

hCTR V358A = target: T5, hCTR V358A (Homo sapiens, UniProt P30988, V358A)
T5 construct: c-Myc (N); expressed in transfected cells
T5 sequence (P30988 25-474 V358A): T1 sequence (P30988 25-474 V293A) with A269V, V334A
Description: as §1, §2

pKi (hCTR V293A): 7.85 | pKi (hCTR V375A): 8.29 | pKi (hCTR R281A): 7.18 | pKi (hCTR S364A): 8.27 | pKi (hCTR V358A): 7.84
SMILES: CSCC[C@H](NC(=O)CNC(=O)[C@H](CO)NC(=O)[C@H](Cc1ccccc1)NC(=O)[C@H](CCCNC(=N)N)NC(=O)[C@H](Cc1c[nH]cn1)NC(=O)[C@H](Cc1ccccc1)NC(=O)[C@H](CC(N)=O)NC(=O)[C@H](CC(N)=O)NC(=O)[C@H](CC(C)C)NC(=O)[C@H](CC(N)=O)NC(=O)[C@H](CCCNC(=N)N)NC(=O)[C@H](Cc1c[nH]c2ccccc12)NC(=O)[C@H](Cc1ccc(O)cc1)NC(=O)[C@H](C)NC(=O)[C@H](CO)NC(=O)[C@H](CC(C)C)NC(=O)[C@@H](NC(=O)[C@@H]1CSSC[C@H](N)C(=O)N[C@@H](CO)C(=O)N[C@@H](CC(N)=O)C(=O)N[C@@H](CC(C)C)C(=O)N[C@@H](CO)C(=O)N[C@@H]([C@@H](C)O)C(=O)N1)C(C)C)C(=O)NCC(=O)N[C@@H](Cc1ccccc1)C(=O)NCC(=O)N1CCC[C@H]1C(=O)N[C@@H](CCC(=O)O)C(=O)N[C@H](C(=O)N1CCC[C@H]1C(N)=O)[C@@H](C)O [pCT] (H-CSNLSTCVLSAYWRNLNNFHRFSGMGFGPETP-NH2; disulfide 1-7)

From publication PMC5908784, “Extracellular loops 2 and 3 of the calcitonin receptor selectively modify agonist binding and efficacy” (Biochemical Pharmacology, 2018)
